IC50 data for eleven molecules are collected here from US12486267B2, “Imidazo[1,2-A]pyridine and [1,2,4]triazolo[1,5-A]pyridine derivatives as TLR9 inhibitors for the treatment of fibrosis” (BRISTOL-MYERS SQUIBB COMPANY, priority 2020, dated 2025).

What all share (assay type): cell-based
Assay [1] concerns the target T1, human TLR9 (Homo sapiens, UniProt Q9NR96).
T1 sequence (Q9NR96 26-1032): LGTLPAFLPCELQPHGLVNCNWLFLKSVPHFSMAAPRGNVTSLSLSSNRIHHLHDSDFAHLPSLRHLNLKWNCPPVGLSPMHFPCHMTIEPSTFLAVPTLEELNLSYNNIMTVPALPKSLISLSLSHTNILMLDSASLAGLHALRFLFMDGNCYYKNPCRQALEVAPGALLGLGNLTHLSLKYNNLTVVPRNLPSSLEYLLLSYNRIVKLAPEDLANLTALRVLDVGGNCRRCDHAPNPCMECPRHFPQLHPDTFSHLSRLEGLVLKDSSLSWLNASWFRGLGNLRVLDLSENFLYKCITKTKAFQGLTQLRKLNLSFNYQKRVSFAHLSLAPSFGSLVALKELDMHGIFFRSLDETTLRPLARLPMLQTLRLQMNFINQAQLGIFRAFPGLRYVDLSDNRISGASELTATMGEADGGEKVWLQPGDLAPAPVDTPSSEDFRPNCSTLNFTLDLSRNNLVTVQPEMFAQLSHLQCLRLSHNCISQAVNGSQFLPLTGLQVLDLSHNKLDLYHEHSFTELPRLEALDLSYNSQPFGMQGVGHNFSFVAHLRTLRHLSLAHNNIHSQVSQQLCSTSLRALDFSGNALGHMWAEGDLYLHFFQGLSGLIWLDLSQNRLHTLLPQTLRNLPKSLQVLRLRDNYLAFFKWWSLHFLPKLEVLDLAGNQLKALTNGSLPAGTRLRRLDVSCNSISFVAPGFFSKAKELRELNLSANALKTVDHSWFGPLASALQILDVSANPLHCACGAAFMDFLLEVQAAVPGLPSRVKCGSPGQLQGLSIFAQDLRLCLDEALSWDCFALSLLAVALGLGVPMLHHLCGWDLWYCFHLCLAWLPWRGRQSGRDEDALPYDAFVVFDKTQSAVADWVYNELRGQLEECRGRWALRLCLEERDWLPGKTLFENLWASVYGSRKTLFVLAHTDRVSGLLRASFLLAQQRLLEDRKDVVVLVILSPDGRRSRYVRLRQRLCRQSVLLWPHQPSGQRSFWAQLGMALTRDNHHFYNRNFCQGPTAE
Nature of the assay: TLR9 inhibition reporter assay (HEK-Blue cells, SEAP reporter). To be noted: HEK-Blue cells overexpressing human TLR9; stimulated with ODN2006 5 nM; 22 hour incubation; SEAP readout. The gist of the method: (§1)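 HEK-Blue cells with an NF-κB/AP-1-driven SEAP reporter were pre-treated 30 min at room temperature with compound (0.05 nM–50 μM), then stimulated with gardiquimod 7.5 μM (TLR7), R848 15.9 μM (TLR8) or ODN2006 5 nM (TLR9). After 22 h at 37 °C, SEAP was read; % inhibition was referenced to agonist+DMSO and known-inhibitor wells.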
(In general: In a reporter assay the amount or activity of a reporter protein is the signal.)

Assay [2] deals with T2, human TLR7 (Homo sapiens, UniProt Q9NYK1).
T2 sequence (Q9NYK1 27-1049): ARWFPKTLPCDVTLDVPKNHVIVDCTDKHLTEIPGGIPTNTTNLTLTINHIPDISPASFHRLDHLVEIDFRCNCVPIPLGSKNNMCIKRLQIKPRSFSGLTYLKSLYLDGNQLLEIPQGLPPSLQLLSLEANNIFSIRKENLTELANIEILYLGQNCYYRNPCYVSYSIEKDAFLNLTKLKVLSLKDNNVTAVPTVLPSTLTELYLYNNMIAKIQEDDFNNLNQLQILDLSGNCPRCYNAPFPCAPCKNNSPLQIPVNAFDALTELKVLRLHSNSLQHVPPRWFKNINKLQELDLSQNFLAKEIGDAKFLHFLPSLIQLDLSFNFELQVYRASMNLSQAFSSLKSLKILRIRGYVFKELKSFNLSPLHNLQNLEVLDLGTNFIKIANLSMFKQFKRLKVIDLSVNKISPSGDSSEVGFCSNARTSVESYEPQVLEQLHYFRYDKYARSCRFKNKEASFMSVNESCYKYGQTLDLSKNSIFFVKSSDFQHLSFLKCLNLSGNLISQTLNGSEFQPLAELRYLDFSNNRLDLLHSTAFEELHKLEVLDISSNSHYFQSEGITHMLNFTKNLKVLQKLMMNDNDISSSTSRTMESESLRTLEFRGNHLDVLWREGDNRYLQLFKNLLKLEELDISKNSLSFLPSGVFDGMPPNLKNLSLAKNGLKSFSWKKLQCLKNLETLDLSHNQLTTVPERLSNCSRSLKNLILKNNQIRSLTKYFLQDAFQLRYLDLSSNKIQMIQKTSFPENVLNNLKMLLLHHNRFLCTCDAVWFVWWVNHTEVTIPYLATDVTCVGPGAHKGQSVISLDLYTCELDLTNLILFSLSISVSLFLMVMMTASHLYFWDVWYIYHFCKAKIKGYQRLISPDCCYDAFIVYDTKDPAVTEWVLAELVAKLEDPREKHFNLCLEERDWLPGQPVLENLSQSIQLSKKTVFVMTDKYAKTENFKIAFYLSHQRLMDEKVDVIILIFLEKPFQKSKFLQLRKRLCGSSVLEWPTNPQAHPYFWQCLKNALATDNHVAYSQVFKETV
Nature of the assay: TLR7 inhibition reporter assay (HEK-Blue cells, SEAP reporter). The settings on record: HEK-Blue cells overexpressing human TLR7; stimulated with gardiquimod 7.5 μM; 22 hour incubation; SEAP readout. The gist of the method: as §1

Assay [3] deals with T3, human TLR8 (Homo sapiens, UniProt Q9NR97).
T3 sequence (Q9NR97 27-1041): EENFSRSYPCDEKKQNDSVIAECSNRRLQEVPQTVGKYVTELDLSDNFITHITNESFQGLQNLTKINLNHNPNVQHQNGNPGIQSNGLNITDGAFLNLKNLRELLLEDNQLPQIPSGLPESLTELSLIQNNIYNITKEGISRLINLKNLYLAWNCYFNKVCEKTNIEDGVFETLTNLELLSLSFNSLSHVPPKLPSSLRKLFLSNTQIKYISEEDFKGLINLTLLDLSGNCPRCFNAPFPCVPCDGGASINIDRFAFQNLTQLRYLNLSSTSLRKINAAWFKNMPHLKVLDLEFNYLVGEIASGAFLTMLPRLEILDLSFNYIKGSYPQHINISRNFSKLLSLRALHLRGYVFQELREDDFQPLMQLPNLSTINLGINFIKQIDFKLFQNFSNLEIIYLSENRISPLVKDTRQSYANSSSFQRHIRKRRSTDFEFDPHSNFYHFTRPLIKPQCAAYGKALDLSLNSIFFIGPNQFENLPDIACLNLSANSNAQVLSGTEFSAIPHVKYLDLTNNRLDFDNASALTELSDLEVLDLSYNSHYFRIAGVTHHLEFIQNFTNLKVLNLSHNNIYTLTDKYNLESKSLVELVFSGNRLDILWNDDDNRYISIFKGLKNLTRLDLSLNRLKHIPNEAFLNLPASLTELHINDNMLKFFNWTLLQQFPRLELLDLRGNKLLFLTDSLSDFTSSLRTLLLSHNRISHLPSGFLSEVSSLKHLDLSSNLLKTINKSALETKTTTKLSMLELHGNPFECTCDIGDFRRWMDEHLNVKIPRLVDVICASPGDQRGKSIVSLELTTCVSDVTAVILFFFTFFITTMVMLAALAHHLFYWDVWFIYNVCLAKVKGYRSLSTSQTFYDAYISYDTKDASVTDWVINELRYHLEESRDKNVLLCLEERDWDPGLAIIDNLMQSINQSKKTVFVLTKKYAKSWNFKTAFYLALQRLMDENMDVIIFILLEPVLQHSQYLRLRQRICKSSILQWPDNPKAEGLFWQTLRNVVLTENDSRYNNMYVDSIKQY
Nature of the assay: TLR8 inhibition reporter assay (HEK-Blue cells, SEAP reporter). The settings on record: HEK-Blue cells overexpressing human TLR8; stimulated with R848 15.9 μM; 22 hour incubation; SEAP readout. The gist of the method:
as §1

For the molecule `COc1ccc(-c2cn3c(n2)CCC(C2CCN(C4CC5(C4)CN(C4CCC4)C5)CC2)C3)cc1OC` (single isomer, unassigned) [Example 49, 6-(1-(2-cyclobutyl-2-azaspiro[3.3]heptan-6-yl)piperidin-4-yl)-2-(3,4-dimethoxyphenyl)-5,6,7,8-tetrahydroimidazo[1,2-a]pyridine], the IC50 in assay [1] is 22 nM; in assay [2] it was 1800 nM; in assay [3], more than 50000 nM.

On to `CS(=O)(=O)c1ccc(-c2cn3cc(C4CCN(C5CC6CCC(C5)N6C5CCC5)CC4)cc(F)c3n2)cc1` (single isomer, unassigned) [Example 118, 6-(1-(8-cyclobutyl-8-azabicyclo[3.2.1]octan-3-yl)piperidin-4-yl)-8-fluoro-2-(4-(methylsulfonyl)phenyl)imidazo[1,2-a]pyridine], for which the IC50 in assay [1] was found to be 21 nM; in assay [2], 1100 nM; in assay [3], 17100 nM.

`CS(=O)(=O)c1ccc(-c2cn3cc(C4CCN(C5CCCN(CC6CC6)CC5)CC4)cc(F)c3n2)cc1` (single isomer, unassigned) [Example 128, 6-(1-(1-(cyclopropylmethyl)azepan-4-yl)piperidin-4-yl)-8-fluoro-2-(4-(methylsulfonyl)phenyl)imidazo[1,2-a]pyridine]: the IC50 in assay [1] was 8.4 nM; in assay [2], 2400 nM; in assay [3], more than 50000 nM.

`Cc1cc(C2CC3CCC(C2)N3C2CCN(C(C)C)CC2)cn2nc(-c3ccc(S(C)(=O)=O)cc3)nc12` (stereo not drawn) [Example 160, 6-(8-(1-isopropylpiperidin-4-yl)-8-azabicyclo[3.2.1]octan-3-yl)-8-methyl-2-(4-(methylsulfonyl)phenyl)-[1,2,4]triazolo[1,5-a]pyridine]: the IC50 is 44 nM in assay [1], 6900 nM in assay [2] and more than 50000 nM in assay [3].

`COc1ccc(-c2cn3cc(C4C[C@H]5CC[C@@H](C4)N5C4CCN(CC(C)C)CC4)cc(C)c3n2)cc1OC` (mixture of isomers) [Example 27, 2-(3,4-dimethoxyphenyl)-6-(8-(1-isobutylpiperidin-4-yl)-8-azabicyclo[3.2.1]octan-3-yl)-8-methylimidazo[1,2-a]pyridine]: the results for the IC50 in assay [1], in assay [2] and in assay [3] were 17 nM, 1400 nM and more than 50000 nM, respectively.

For the molecule `COc1ccc(-c2cn3c(n2)CCC(C2CCN(C4CC5(C4)CN(C(C)C)C5)CC2)C3)cc1OC` (single isomer, unassigned) [Example 46, 2-(3,4-dimethoxyphenyl)-6-(1-(2-isopropyl-2-azaspiro[3.3]heptan-6-yl)piperidin-4-yl)-5,6,7,8-tetrahydroimidazo[1,2-a]pyridine], the IC50 is 272 nM in assay [1], 30000 nM in assay [2] and more than 50000 nM in assay [3].

Take `COc1ccc(-c2cn3cc(C4CCN(C5CCN(C(C)C)CC5)CC4)cc(C)c3n2)cc1F` [Example 5, 2-(3-fluoro-4-methoxyphenyl)-6-(1′-isopropyl-[1,4′-bipiperidin]-4-yl)-8-methylimidazo[1,2-a]pyridine]: the IC50 in assay [1] is 166 nM; in assay [2], 3000 nM; in assay [3], more than 50000 nM.

Take `COc1ccc(-c2cn3c(n2)CCC(C2CCN(C4CCN(CC5CC5)CC4)CC2)C3)cc1OC` (single isomer, unassigned) [Example 57, 6-(1′-(cyclopropylmethyl)-[1,4′-bipiperidin]-4-yl)-2-(3,4-dimethoxyphenyl)-5,6,7,8-tetrahydroimidazo[1,2-a]pyridine]: the half-inhibitory concentration (IC50) in assay [1] was 36 nM; in assay [2], 4200 nM; in assay [3], more than 50000 nM.

For `CC(C)CN1CCC(N2CCC(c3ccc4nc(-c5ccc(S(C)(=O)=O)cc5)cn4c3F)CC2)CC1` [Example 131, 5-fluoro-6-(1′-isobutyl-[1,4′-bipiperidin]-4-yl)-2-(4-(methylsulfonyl)phenyl) imidazo[1,2-a]pyridine], the figures for the IC50 in assay [1], in assay [2] and in assay [3] were 58 nM, 18100 nM and 16700 nM, respectively.

Consider `COc1ccc(-c2cn3cc(C4CC5CCC(C4)N5C4CCN(C5CC5)CC4)cc(C)c3n2)cc1OC` (single isomer, unassigned) [Example 26, 6-(8-(1-cyclopropylpiperidin-4-yl)-8-azabicyclo[3.2.1]octan-3-yl)-2-(3,4-dimethoxyphenyl)-8-methylimidazo[1,2-a]pyridine], for which the IC50 in assay [1] was 86 nM; in assay [2] it was 2000 nM; in assay [3] it was more than 50000 nM.

As to `CC(C)N1CCCC(N2CCC(c3cc(F)c4nc(-c5ccc(S(C)(=O)=O)cc5)cn4c3)CC2)CC1` (single isomer, unassigned) [Example 71, 8-fluoro-6-(1-(1-isopropylazepan-4-yl)piperidin-4-yl)-2-(4-(methylsulfonyl)phenyl)imidazo[1,2-a]pyridine], the figures for the IC50 in assay [1], in assay [2] and in assay [3] were 39 nM, 3000 nM and more than 50000 nM, respectively.

A word on the IC50: it is the concentration needed to halve the response being measured. High values mean lower potency, low ones higher potency.
